Where two headings read alike, the source gives them in different places.

Experiment [1] concerns isolated human hair follicles. Description: Diameter of hair fibres grown in vitro, Laser Scan Micrometer (Example 4). The class given is cell-based. Conditions: range of cysteine concentrations, 7-11 days of culture. How it is done:
Follicles were isolated as described in Example 1 and placed into culture in supplemented Williams E medium containing a range of concentrations of cysteine. Following several days of culture(7-11), follicles were removed from the medium and the fibres isolated from the follicles as described above. The diameter of the fibres was measured using a modified Laser Scan Micrometer (Mitotoyu) coupled to a moving jig which was capable of rotating the fibre through 180° and moving the fibre through the laser beam at intervals of 0.2mm. Each isolated fibre contained a small part which was formally grown in vivo, the diameter of this "in vivo" end of the fibre. The diameter of the fibre grown in vitro was measured at intervals of 0.2mm along the fibre. For estimation of the effect of different media concentrations of cysteine on diameter, the average in vitro diameter was compared across the treatment concentrations of cysteine and the ratio of in vitro diameter to in vivo diameter was calculated.

In experiment [2] the test system is sheep. Conditions: cited from earlier work; for sulphur content of the "new" wool / wool growth: abomasal or intravenous infusion, sheep consuming roughage-based diets; for increase in fibre diameter: cysteine infusion, sheep wool.
In experiment [3] the test system is isolated human hair follicles. Put plainly: In vitro hair follicle growth test: growth at varied cysteine concentration (Example 1). The experiment is classed as cell-based. Conditions: concentration of cysteine + cystine (half cystine) varied in supplemented Williams E medium. How it is done: The effect of cysteine on hair diameter was assessed using an in vitro test which uses isolated human hair follicles in a culture medium.
Human hair follicles were isolated from scalp skin by the methods described by Philpott et al J Cell Science 97 463-471, 1990. […] Follicles isolated in this way were cultured as described by Westgate et al Br. J. Dermatol 129 372-379, 1993 in a completely defined culture medium called Williams E medium (obtainable from ICN FLOW), the latter supplemented with antibiotics, glutamine, hydrocortisone and Insulin. In this example the concentration of cysteine + cystine (referred to as half cystine) was varied and the daily rate of growth of follicles measured.

The test system of experiment [4] is isolated human hair follicles. Put plainly: Fibre diameter after change from lower to higher cysteine concentration (Example 5). The class given is cell-based. How it is done:
Follicles were isolated as described in Example 1 and cultured as described in Example 3. Fibres were isolated and diameter measured as described in Example 4. […] The change in diameter was calculated by taking, firstly the diameter at the narrowest part of the fibre for each of the three treatments and secondly the diameter of the fibre during growth after addition of cysteine - deemed to be the in vitro diameter, and taking the ratio of these to the in vivo diameter.

The subject of experiment [5] is isolated human hair follicles. Put plainly: Incorporation of radiolabelled cysteine into hair fibre in vitro (Example 2). The experiment is classed as cell-based. Conditions: 5 hours with a range of cysteine concentrations, partly radiolabelled; 48 hours chase; liquid scintillation counting of the fibre. Here is the method:
Follicles were isolated as described in Example 1 and cultured for 5 hours in the presence of a range of concentrations of cysteine, a small proportion of which was radiolabelled. After 5 hours the follicles were transferred to normal supplemented Williams E medium to "chase" the radioactivity into the fibre being grown in the follicle, for 48 hours. The hair fibre was isolated from each follicle using a combination of detergent and enzyme and the 'naked' fibre dissolved and subjected to liquid scintillation counting.

For experiment [6], the system named is isolated human hair follicles. Description: Growth of follicles moved from lower to higher cysteine medium (Example 3). The class given is cell-based. Conditions: 2 days in medium with lower cysteine, then moved to medium with a higher amount of cysteine. Here is the method:
Human hair follicles were isolated as described in Example 1 and placed into culture in Williams E medium formulated to contain a lower concentration of cysteine. Follicles were cultured for 2 days in this medium then transferred to medium containing a higher amount of cysteine.

For the compound `N[C@@H](CS)C(=O)O` [cysteine], in experiment [1], the “diameter of the fibres” value is listed as “dependent on the concentration of cysteine available to the follicles”. The “sulphur content of the "new" wool” value in experiment [2] was “increased”. Also, the wool growth entry in experiment [2] was “stimulates wool growth”. Also, the “increase in fibre diameter” value was 1-3 µm in experiment [2] (typical value) and 5-10% in experiment [2]. Also, the “daily rate of growth of follicles” value in experiment [3] is on record as “growth increases with cysteine concentration in the medium”. In addition, the “diameter of the fibre” value in experiment [4] (after transfer to the higher concentration of cysteine (495.0µM)) is given as “increased again”; in experiment [4] (lower concentration of cysteine (9.0µM), compared with the in vivo diameter) it was “decreased from the in vivo diameter”. For the same compound, the “change in diameter (ratio to the in vivo diameter)” value in experiment [4] (follicles where the cysteine concentration was reversed) is listed as “the fibre diameter was similarly reversed”. Further, in experiment [5], the “Incorporation of cysteine into human hair in vitro” value is listed as “concentration dependent”. For the same compound, in experiment [6], the growth rate entry is recorded as “increasing their growth rate”.
With `CSCC[C@H](N)C(=O)O` [methionine, reference compound], in experiment [2], the “sulphur content of the "new" wool” value is listed as “increased” and the wool growth result is on record as “stimulates wool growth”.

Source of the values: patent EP0866684B1, “COSMETIC HAIR TREATMENT METHOD” (UNILEVER PLC, priority 1995, dated 1997).
